Measurements published in ChEMBL document CHEMBL1158871, “Minor Bioactive Dihydrophenanthrenes from Juncus effusus” (1997).

What was measured:
Format in all cases: functional
Conditions in all cases: UTEX 1648, light or radiation study, read-out: GI
[1] = tested on: Selenastrum capricornutum; test: Antialgal activity against Selenastrum capricornutum UTEX 1648 assessed as growth inhibition at 50 uM exposed to 150 uEs'-1m'-2 irradiation under 16 hrs light/8 hrs dark photoperiod conditions relative to control
[2] = tested on: Selenastrum capricornutum; test: Antialgal activity against Selenastrum capricornutum UTEX 1648 assessed as growth inhibition at 5 uM exposed to 150 uEs'-1m'-2 irradiation under 16 hrs light/8 hrs dark photoperiod conditions relative to control
[3] = tested on: Selenastrum capricornutum; test: Antialgal activity against Selenastrum capricornutum UTEX 1648 assessed as growth inhibition at 10 uM exposed to 150 uEs'-1m'-2 irradiation under 16 hrs light/8 hrs dark photoperiod conditions relative to control
[4] = tested on: Selenastrum capricornutum; test: Antialgal activity against Selenastrum capricornutum UTEX 1648 assessed as growth inhibition at 0.1 mM exposed to 150 uEs'-1m'-2 irradiation under 16 hrs light/8 hrs dark photoperiod conditions relative to control

Row | SMILES | inhibition of growth at 50 µM [1] [%] | inhibition of growth at 5 µM [2] [%] | inhibition of growth at 10 µM [3] [%] | inhibition of growth at 100 µM [4] [%]
1 | Cc1c(O)ccc2c1CCc1c(C)c(O)cc(CO)c1-2 | 40 | 4 | 10 | 70
2 | C=Cc1cc(CO)cc2c1-c1ccc(O)c(C)c1CC2 | 38 | 0 | 0 | 57
3 | C=Cc1c(CO)ccc2c1-c1ccc(O)c(C)c1CC2 | 40 | 0 | 5 | 64
4 | Cc1cc(CO)c2c(c1)CCc1c-2ccc(O)c1C | 50 | 7 | 20 | 80
5 | COc1cc(CO)c2c(c1C)CCc1c-2ccc(O)c1C | 55 | 0 | 18 | 80
6 | Cc1c(O)ccc2c1CCc1c(C)c(O)cc(C(C)O)c1-2 (stereo not drawn) | 52 | 5 | 20 | 75
7 | Cc1cc2c(c3c1OC(O)C3O)-c1ccc(O)c(C)c1CC2 (stereo not drawn) | 10 | 0 | 0 | 20
